Measured values reported in patent US20240368133A1, “Compounds for the Treatment of Pain, in Particular, Neuropathic Pain, and/or Other Diseases or Disorders that are Associated with AT2R and/or AT2R Mediated Signaling” (Confo Therapeutics N.V., priority 2021, published 2024).

Tests used:
[1] = target: human AT2R fused to Cb23 (Homo sapiens, UniProt P50052); assay: Radioligand binding assay, displacement of 125I-[Sar1, Ile8]-Angiotensin II, hAT2R Cb23; details: displacement of 125I-[Sar1, Ile8]-Angiotensin II, human AT2R fused to Cb23, HEK-293 cell membrane preparations; read-out: Binding affinity on hAT2R_Cb23 IC50
Sequence of human AT2R fused to Cb23 (P50052 whole entry, looked up, the tested form may be a part): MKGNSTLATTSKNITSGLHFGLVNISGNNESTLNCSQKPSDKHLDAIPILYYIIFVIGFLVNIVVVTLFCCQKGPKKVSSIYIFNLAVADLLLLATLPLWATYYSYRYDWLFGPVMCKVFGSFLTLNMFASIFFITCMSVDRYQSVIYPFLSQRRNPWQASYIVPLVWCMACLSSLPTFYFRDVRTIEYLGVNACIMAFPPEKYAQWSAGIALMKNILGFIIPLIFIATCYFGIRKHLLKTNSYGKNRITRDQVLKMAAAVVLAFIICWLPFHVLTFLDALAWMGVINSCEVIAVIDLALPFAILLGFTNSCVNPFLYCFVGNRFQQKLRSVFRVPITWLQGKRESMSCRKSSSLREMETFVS
Procedure, shortened: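 Membranes from HEK-293 cells expressing human AT2R fused to Cb23 were incubated with 0.05 nM 125I-[Sar1, Ile8]-Angiotensin II in 100 μL buffer (50 mM Tris, 5 mM MgCl2, 1 mM EDTA, 0.1% BSA, pH 7.4) for one hour at 25° C. Ligands were tested as eight-point dose-response curves in duplicate, with C21 and Angiotensin II as references.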

[2] = target: human AT1R (Homo sapiens (Human), UniProt P30556); assay: Counterscreen radioligand binding assay, displacement of 125I-[Sar1, Ile8]-Angiotensin II, hAT1R WT; details: for inhibition at 1 µM / inhibition at 10 µM: 125I-[Sar1, Ile8]-Ang II, semi-quantitative score; for inhibition at 1 µM: compound at 1 μM, read-out: % Displaced radioligand at 1 μM; for inhibition at 10 µM: compound at 10 μM, read-out: % Displaced radioligand at 10 μM
Sequence of human AT1R (P30556 whole entry): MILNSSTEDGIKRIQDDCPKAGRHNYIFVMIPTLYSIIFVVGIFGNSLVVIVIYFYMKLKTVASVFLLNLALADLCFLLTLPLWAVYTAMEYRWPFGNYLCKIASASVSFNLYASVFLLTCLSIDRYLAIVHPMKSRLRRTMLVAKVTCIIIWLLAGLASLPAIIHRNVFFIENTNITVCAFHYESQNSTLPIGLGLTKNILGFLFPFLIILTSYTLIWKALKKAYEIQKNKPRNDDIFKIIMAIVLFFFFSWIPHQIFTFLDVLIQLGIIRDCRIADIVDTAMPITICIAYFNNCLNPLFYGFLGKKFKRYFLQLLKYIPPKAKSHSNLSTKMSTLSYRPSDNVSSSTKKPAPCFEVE
Procedure, shortened: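 Compounds displaced 0.05 nM 125I-[Sar1, Ile8]-Ang II from human AT1R in HEK-293 membranes (1 h, 25° C; Tris/MgCl2/EDTA/BSA buffer, pH 7.4). Readout was filtration and scintillation counting, with non-specific binding set by 10 μM [Sar1]-Ang II. Values are % displacement at 1 μM and […], or IC50 from eight-point four-parameter fits.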

Row | SMILES | IC50 [1] [µM] | inhibition at 1 µM [2] [%] | inhibition at 10 µM [2] [%] | IC50 ([2]; HEK-293 cell membranes, read-out: Binding affinity On hAT1R IC50) [µM]
1 | CC(C)Cc1cc(F)c(-c2nn[nH]n2)c(N2CC3CCC(C2)N3Cc2cccnn2)c1 [Compound A-190, 3-[3-fluoro-5-isobutyl-2-(2H-tetrazol-5-yl)phen-yl]-8-(pyridazin-3-ylmethyl)-3,8-diaza-bicyclo[3.2.1]octane] | 1.35 | < 30 | < 30 | 
2 | COc1ccc(CN2CCN(c3cc(CC(C)C)cc(F)c3-c3nn[nH]n3)CC2)nc1 [Compound A-194, 1-[3-fluoro-5-isobutyl-2-(2H-tetrazol-5-yl)phenyl]-4-[(5-methoxy-2-pyridyl)methyl]piperazine] | 0.737 | < 30 | < 30 | 
3 | Cc1cnc(CN2CCN(c3cc(CC(C)C)cc(F)c3-c3nn[nH]n3)CC2)c(C)c1 [Compound A-197, 1-[(3,5-dimethyl-2-pyridyl)methyl]-4-[3-fluoro-5-isobutyl-2-(2H-tetrazol-5-yl)phenyl]piperazine] | 0.203 | < 30 | < 30 | 
4 | COc1ccnc(CN2CCN(c3cc(CC(C)C)cc(F)c3-c3nn[nH]n3)CC2)c1 [Compound A-199, 1-[3-fluoro-5-isobutyl-2-(2H-tetrazol-5-yl)phen-yl]-4-[(4-methoxy-2-pyridyl)methyl]-piperazine] | 0.176 | < 30 | < 30 | 
5 | COc1c(C)cnc(CN2CCN(c3cc(CC(C)C)cc(F)c3-c3nn[nH]n3)CC2)c1C [Compound A-200, 1-[3-fluoro-5-isobutyl-2-(2H-tetrazol-5-yl)phen-yl]-4-[(4-methoxy-3,5-dimethyl-2-pyridyl)methyl]-piperazine] | 1.06 | < 30 | < 30 | 
6 | Cc1ccc(CN2CCN(c3cc(CC(C)C)cc(F)c3-c3nn[nH]n3)CC2)nc1 [Compound A-201, 1-[3-fluoro-5-isobutyl-2-(2H-tetrazol-5-yl)phenyl]-4-[(5-methyl-2-pyridyl)methyl]piperazine] | 0.65 | < 30 | < 30 | 
7 | CC(C)Cc1cc(F)c(-c2nn[nH]n2)c(N2CCN(Cc3cc(C(F)(F)F)ccn3)CC2)c1 [Compound A-202, 1-[3-fluoro-5-isobutyl-2-(2H-tetrazol-5-yl)phenyl]-4-[[4-(trifluoromethyl)-2-pyridyl]methyl]piperazine] | 0.824 | < 30 | < 30 | 
8 | COc1cnc(CN2CCN(c3cc(CC(C)C)cc(F)c3-c3nn[nH]n3)CC2)cc1OC [Compound A-207, 1-[(4,5-dimethoxy-2-pyridyl)methyl]-4-[3-fluoro-5-isobutyl-2-(2H-tetrazol-5-yl)phenyl]piperazine] | 1.21 | < 30 | < 30 | 
9 | COc1ccnc(CN2CCN(c3cc(CC(C)C)cc(F)c3-c3nn[nH]n3)CC2)c1C [Compound A-208, 1-[3-fluoro-5-isobutyl-2-(2H-tetrazol-5-yl)phen-yl]-4-[(4-methoxy-3-methyl-2-pyrid-yl)methyl]piper-azine] | 1.92 | < 30 | < 30 | 
10 | CC(C)Cc1cc(F)c(-c2nn[nH]n2)c(N2CCN(Cc3ccc(C#N)cn3)CC2)c1 [Compound A-209, 6-[[4-[3-fluoro-5-isobutyl-2-(2H-tetrazol-5-yl)phen-yl]piperazin-1-yl]-methyl]pyridine-3-carbonitrile] | 3.68 | 30 to 50 | > 50 | 6.74
11 | CC(C)Cc1cc(F)c(-c2nn[nH]n2)c(N2CCN(Cc3cc(Cl)c(F)cn3)CC2)c1 [Compound A-210, 1-[(4-chloro-5-fluoro-2-pyridyl)-methyl]-4-[3-fluoro-5-isobutyl-2-(2H-tetrazol-5-yl)phen-yl]piperazine] | 2.01 | < 30 | < 30 | 
12 | CC(C)Cc1cc(F)c(-c2nn[nH]n2)c(N2CCN(Cc3ncc(F)cc3F)CC2)c1 [Compound A-211, 1-[(3,5-difluoro-2-pyridyl)methyl]-4-[3-fluoro-5-isobutyl-2-(2H-tetrazol-5-yl)phenyl]piperazine] | 1.29 | < 30 | < 30 | 
13 | CC(C)Cc1ccc(-c2nn[nH]n2)c(N2CCN(C(C)c3cccnn3)CC2)c1 (stereo not shown) [Compound A-212, 3-[1-[4-[5-isobutyl-2-(2H-tetrazol-5-yl)-phenyl]piperazin-1-yl]ethyl]pyrid-azine] | 0.434 | < 30 | < 30 | 
14 | CC(C)Cc1cc(F)c(-c2nn[nH]n2)c(N2CCN(C(=O)c3cccnn3)CC2)c1 [Compound A-213, [4-[3-fluoro-5-isobutyl-2-(2H-tetrazol-5-yl)phenyl]piperazin-1-yl]-pyridazin-3-yl-methanone] | 0.389 | < 30 | < 30 | 
15 | CC(C)Cc1cc(F)c(-c2nn[nH]n2)c(N2CCN(C(C)c3ccccn3)CC2)c1 (stereo not shown) [Compound A-214, 1-[3-fluoro-5-isobutyl-2-(2H-tetrazol-5-yl)phenyl]-4-[1-(2-pyridyl)ethyl]piperazine] | 0.0386 | < 30 | < 30 | 
16 | CC(C)Cc1cc(F)c(-c2nn[nH]n2)c(N2CCN(C(=O)c3ccccn3)CC2)c1 [Compound A-215, [4-[3-fluoro-5-isobutyl-2-(2H-tetrazol-5-yl)phen-yl]piperazin-1-yl]-(2-pyridyl)meth-anone] | 0.3 | < 30 | < 30 | 
17 | CC(C)Cc1cc(F)c(-c2nn[nH]n2)c(N2CCN(C(=O)c3ccccn3)[C@@H](C)C2)c1 [Compound A-216, [(2S)-4-[3-fluoro-5-isobutyl-2-(2H-tetrazol-5-yl)phen-yl]-2-methyl-piperazin-1-yl]-(2-pyridyl)methanone] | 0.247 | < 30 | < 30 | 

Now from value to molecule:

Row | IC50 [1] [µM] | inhibition at 1 µM [2] [%] | inhibition at 10 µM [2] [%] | IC50 ([2]; HEK-293 cell membranes, read-out: Binding affinity On hAT1R IC50) [µM] | SMILES
18 | 0.0531 | < 30 | < 30 |  | CC(C)Cc1cc(F)c(-c2nn[nH]n2)c(N2CCN(Cc3cc(Cl)ccn3)CC2)c1 [Compound A-191, 1-[(4-chloro-2-pyridyl)methyl]-4-[3-fluoro-5-isobutyl-2-(2H-tetrazol-5-yl)phenyl]piperazine]
19 | 0.519 | < 30 | < 30 |  | CC(C)Cc1cc(F)c(-c2nn[nH]n2)c(N2CCN(Cc3ccc(Cl)cn3)CC2)c1 [Compound A-192, 1-[(5-chloro-2-pyridyl)methyl]-4-[3-fluoro-5-isobutyl-2-(2H-tetrazol-5-yl)phenyl]piperazine]
20 | 0.389 | < 30 | < 30 |  | CC(C)Cc1cc(F)c(-c2nn[nH]n2)c(N2CCN(Cc3ncccc3Cl)CC2)c1 [Compound A-193, 1-[(3-chloro-2-pyridyl)methyl]-4-[3-fluoro-5-isobutyl-2-(2H-tetrazol-5-yl)phenyl]piperazine]
21 | 0.537 | < 30 | < 30 |  | CC(C)Cc1cc(F)c(-c2nn[nH]n2)c(N2CCN(Cc3ccc(F)cn3)CC2)c1 [Compound A-195, 1-[3-fluoro-5-isobutyl-2-(2H-tetrazol-5-yl)phen-yl]-4-[(5-fluoro-2-pyridyl)methyl]-piperazine]
22 | 0.631 | < 30 | < 30 |  | CC(C)Cc1cc(F)c(-c2nn[nH]n2)c(N2CCN(Cc3ncccc3F)CC2)c1 [Compound A-196, 1-[3-fluoro-5-isobutyl-2-(2H-tetrazol-5-yl)phen-yl]-4-[(3-fluoro-2-pyridyl)methyl]-piperazine]
23 | 1.82 | < 30 | < 30 |  | COc1cccnc1CN1CCN(c2cc(CC(C)C)cc(F)c2-c2nn[nH]n2)CC1 [Compound A-198, 1-[3-fluoro-5-isobutyl-2-(2H-tetrazol-5-yl)phen-yl]-4-[(3-methoxy-2-pyridyl)meth-yl]piperazine]
24 | 0.155 | < 30 | < 30 |  | Cc1cccnc1CN1CCN(c2cc(CC(C)C)cc(F)c2-c2nn[nH]n2)CC1 [Compound A-203, 1-[3-fluoro-5-isobutyl-2-(2H-tetrazol-5-yl)phen-yl]-4-[(3-methyl-2-pyridyl)methyl]-piperazine]
25 | 0.212 | < 30 | < 30 |  | Cc1ccnc(CN2CCN(c3cc(CC(C)C)cc(F)c3-c3nn[nH]n3)CC2)c1 [Compound A-204, 1-[3-fluoro-5-isobutyl-2-(2H-tetrazol-5-yl)phen-yl]-4-[(4-methyl-2-pyridyl)methyl]-piperazine]
26 | 0.379 | < 30 | < 30 |  | CC(C)Cc1cc(F)c(-c2nn[nH]n2)c(N2CCN(Cc3ncc(Cl)cc3F)CC2)c1 [Compound A-205, 1-[(5-chloro-3-fluoro-2-pyridyl)methyl]-4-[3-fluoro-5-isobutyl-2-(2H-tetrazol-5-yl)phenyl]piperazine]
27 | 1.08 | < 30 | < 30 |  | CC(C)Cc1cc(F)c(-c2nn[nH]n2)c(N2CCN(Cc3ncc(F)cc3Cl)CC2)c1 [Compound A-206, 1-[(3-chloro-5-fluoro-2-pyridyl)-methyl]-4-[3-fluoro-5-isobutyl-2-(2H-tetrazol-5-yl)phen-yl]piperazine]
